Reference: the NIST ThermoML archive (doi:10.1016/j.tca.2016.09.002)
± gives the expanded uncertainty stated by the source.

Key:
[1] = 101.33 kPa, Liquid, Hot wire method
[2] = wn = mass fraction of the nth substance listed; details: 303.15 K, 100.7 kPa, Liquid, Hot wire method

SMILES	thermal conductivity ([1]; 303.15 K) [W/m/K]	thermal conductivity ([1]; 313.15 K) [W/m/K]	thermal conductivity ([1]; 323.15 K) [W/m/K]	thermal conductivity ([2]; w1 = 0.00761) [W/m/K]	thermal conductivity ([2]; w1 = 0.0085) [W/m/K]
O [water]	0.607 ± 0.015	0.621 ± 0.016	0.631 ± 0.016	–	–
C[C@H](CCC(=O)[O-])[C@H]1CC[C@H]2[C@@H]3CC[C@@H]4C[C@H](O)CC[C@]4(C)[C@H]3C[C@H](O)[C@]12C.[Na+] [sodium deoxycholate] + OCCO	–	–	–	0.259 ± 0.003	–
C[C@H](CCC(=O)[O-])[C@H]1CC[C@H]2[C@@H]3CC[C@@H]4C[C@H](O)CC[C@]4(C)[C@H]3C[C@H](O)[C@]12C.[Na+] [sodium deoxycholate] + O	–	–	–	–	0.617 ± 0.006
OCCO [1,2-ethanediol]	0.254 ± 0.003	0.256 ± 0.004	0.26 ± 0.003	–	–
